This note sets out measurements from PubChem BioAssay (NCI).

Test systems include HOP-62 NSCLC; NCI-H226 lung; HL-60(TB) leukemia; RXF 393 renal; HCT-116 colon; SK-OV-3 ovarian; MALME-3M melanoma; NCI-H460 lung; A498 renal; RPMI-8226 leukemia; HT29 colon; MDA-MB-435; BT-549 breast; MDA-MB-231 breast.
What all share (test): growth of human tumour cells (NCI), 48 h

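Step 1: Grow cells in 96-well plates. Step 2: Expose to compound for 48 hours at 5 concentrations. Step 3: Interpolate endpoints linearly; if unreached, use highest concentration. GI50: concentration for 50% inhibition of growth. Definition used: TGI = concentration required for complete inhibition of growth.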 Some results are limits rather than exact numbers.

With `O=c1[nH]cc(COCC(O)CO)c(=O)[nH]1` (centres undefined), the TGI in the test on HOP-62 NSCLC, in the test on NCI-H226 lung, with HL-60(TB) leukemia, in the test on RXF 393 renal, in the test with HCT-116 colon and in the test on SK-OV-3 ovarian was above 100 µM throughout. In addition, the TGI in the test on MALME-3M melanoma, in the test on NCI-H460 lung, in the test on A498 renal, with RPMI-8226 leukemia and in the test with HT29 colon was above 100 µM in each case.

On to `CN(C(=O)c1cc2c(s1)sc1c(=O)n(C)c3ccccc3c12)c1ccccc1`, for which the TGI with MDA-MB-435, in the test with NCI-H226 lung, in the test with RXF 393 renal, in the test on HCT-116 colon, in the test on SK-OV-3 ovarian and in the test with MALME-3M melanoma was above 100 µM in each case. Moreover, the TGI in the test with NCI-H460 lung is 83.3 µM; in the test with BT-549 breast, above 100 µM; with MDA-MB-231 breast, above 100 µM; in the test with HT29 colon, above 100 µM.

On to `CNc1cccc2c1C(C)C[C@]1(C)C(=O)Nc3ccccc3[C@H]21` (some centres undefined), for which the TGI in the test with HOP-62 NSCLC is 36.4 µM; with MDA-MB-435, 53.4 µM; with NCI-H226 lung, 61.4 µM; in the test with HL-60(TB) leukemia, above 100 µM; in the test on RXF 393 renal, 50 µM; with HCT-116 colon, 34.8 µM. Besides, the TGI is 47.7 µM in the test with MALME-3M melanoma; 41.1 µM in the test on NCI-H460 lung; 43.6 µM in the test on A498 renal; 42.9 µM in the test with MDA-MB-231 breast; above 100 µM with RPMI-8226 leukemia; 81.6 µM in the test on HT29 colon.

On to `Cc1cc(C)nc(NS(=O)(=O)c2ccc(Nc3nnc(/C=C/c4c(O)ccc5ccccc45)c(=O)n3N)cc2)n1`, for which the TGI in the test with HOP-62 NSCLC is above 100 µM; in the test with MDA-MB-435 it was 57.6 µM; in the test on HL-60(TB) leukemia, 66.8 µM; with RXF 393 renal, 55.3 µM; in the test on HCT-116 colon, 42 µM; in the test with SK-OV-3 ovarian it was above 100 µM. In addition, the TGI is 92.7 µM in the test with MALME-3M melanoma, 62.5 µM in the test on BT-549 breast, above 100 µM in the test on RPMI-8226 leukemia and above 100 µM in the test with HT29 colon.

Take `O=c1cc(-c2ccc3ccccc3c2)[nH]c2ncccc12`: the TGI in the test with HOP-62 NSCLC was above 100 µM; in the test on NCI-H226 lung, above 100 µM; in the test with HL-60(TB) leukemia, 4.55 µM; in the test on HCT-116 colon it was above 100 µM; in the test on SK-OV-3 ovarian, above 100 µM; in the test on MALME-3M melanoma, above 100 µM. Moreover, the TGI was above 100 µM in the test with NCI-H460 lung; 48.7 µM in the test with A498 renal; above 100 µM in the test on BT-549 breast; above 100 µM in the test with MDA-MB-231 breast; 60.7 µM in the test on RPMI-8226 leukemia; above 100 µM in the test with HT29 colon. In addition, the GI50 in the test with HL-60(TB) leukemia was 1.8 µM; in the test on HCT-116 colon, 3.83 µM; with NCI-H460 lung it was 3.79 µM.

As to `Brc1ccc(N=Nc2ccc3ccccc3n2)cc1`, the TGI with MDA-MB-435 was above 100 µM; in the test with NCI-H226 lung it was 66.9 µM; in the test with HL-60(TB) leukemia, above 100 µM; with RXF 393 renal it was above 100 µM; with HCT-116 colon, 30.1 µM; in the test on SK-OV-3 ovarian it was 49.6 µM. In addition, the TGI with MALME-3M melanoma is above 100 µM; with NCI-H460 lung, 26.4 µM; with BT-549 breast it was 60.5 µM; in the test with RPMI-8226 leukemia, above 100 µM; in the test with HT29 colon it was above 100 µM.

As to `CC1(C)CC2C(/C1=N/O)C1(C)CCCC2(C)C1O` (centres undefined), the TGI with HOP-62 NSCLC, with MDA-MB-435, in the test on NCI-H226 lung, in the test on HL-60(TB) leukemia, with HCT-116 colon and with SK-OV-3 ovarian was above 100 µM in each case. Further, the TGI with MALME-3M melanoma, with NCI-H460 lung, in the test with BT-549 breast, in the test on RPMI-8226 leukemia and in the test with HT29 colon was above 100 µM in each case.

As for `O=C(NN1C(=O)C(Cl)C1c1cccc(Cl)c1)c1ccccc1O` (centres undefined), the TGI in the test with NCI-H226 lung, in the test with HL-60(TB) leukemia, with RXF 393 renal, with HCT-116 colon, in the test on SK-OV-3 ovarian and in the test on MALME-3M melanoma was above 100 µM throughout. Besides, the TGI with NCI-H460 lung, with A498 renal and in the test with HT29 colon was above 100 µM each time.

In the case of `C/C(CC(=O)Nc1ccccc1)=N\NC(N)=S`, the TGI in the test with HOP-62 NSCLC, in the test with NCI-H226 lung, in the test on HL-60(TB) leukemia, with RXF 393 renal, with HCT-116 colon and in the test on SK-OV-3 ovarian was above 100 µM throughout. Besides, the TGI in the test with MALME-3M melanoma, in the test on NCI-H460 lung, in the test on RPMI-8226 leukemia and in the test with HT29 colon was above 100 µM each time.

For the compound `CC(=O)OC1CC2C(C)(C)OC(=O)CC(OC(C)=O)[C@]2(C)C2CCC3(C)C(=CCC3c3ccoc3)[C@]12C` (some centres undefined), the TGI was 96.6 µM in the test with HOP-62 NSCLC; 69.6 µM in the test with NCI-H226 lung; above 100 µM in the test on HL-60(TB) leukemia; above 100 µM in the test on RXF 393 renal; 58.6 µM in the test with HCT-116 colon; 54.1 µM in the test with SK-OV-3 ovarian. The TGI in the test on MALME-3M melanoma was 92.6 µM; in the test with NCI-H460 lung it was above 100 µM; in the test with A498 renal, above 100 µM; in the test with RPMI-8226 leukemia it was above 100 µM; in the test on HT29 colon, 39.3 µM.

For `OCCSCC/C(=N\N=C(/CCSCCO)c1ccccc1)c1ccccc1`, the TGI with HOP-62 NSCLC is above 100 µM; in the test on NCI-H226 lung, above 100 µM; with HL-60(TB) leukemia it was above 100 µM; in the test on RXF 393 renal, 99.7 µM; in the test with SK-OV-3 ovarian it was above 100 µM; with MALME-3M melanoma, above 100 µM. The TGI in the test with NCI-H460 lung, in the test with RPMI-8226 leukemia and with HT29 colon was above 100 µM throughout.

Take `C=CCN(N=O)C(=O)N(CCCCC(NC(C)=O)C(=O)NCc1ccccc1)Cc1ccccc1` (centres undefined): the TGI in the test on HOP-62 NSCLC was above 100 µM; with NCI-H226 lung, 60.7 µM; in the test with HL-60(TB) leukemia, 43.5 µM; with RXF 393 renal, 93.1 µM; in the test with SK-OV-3 ovarian it was above 100 µM; in the test on MALME-3M melanoma, 58.9 µM. The TGI is above 100 µM with NCI-H460 lung, above 100 µM in the test with A498 renal, 41.9 µM with RPMI-8226 leukemia and 36.8 µM in the test on HT29 colon.
